Reference: patent US10336732B2, “1-heterocyclyl isochromanyl compounds and analogs for treating CNS disorders” (Sunovion Pharmaceuticals Inc., priority 2015, dated 2019)

Biological target: T1, M4 (Homo sapiens, UniProt P08173)
T1 construct: expressed in transfected cells; host or cells: CHO cells
T1 sequence (P08173 1-479): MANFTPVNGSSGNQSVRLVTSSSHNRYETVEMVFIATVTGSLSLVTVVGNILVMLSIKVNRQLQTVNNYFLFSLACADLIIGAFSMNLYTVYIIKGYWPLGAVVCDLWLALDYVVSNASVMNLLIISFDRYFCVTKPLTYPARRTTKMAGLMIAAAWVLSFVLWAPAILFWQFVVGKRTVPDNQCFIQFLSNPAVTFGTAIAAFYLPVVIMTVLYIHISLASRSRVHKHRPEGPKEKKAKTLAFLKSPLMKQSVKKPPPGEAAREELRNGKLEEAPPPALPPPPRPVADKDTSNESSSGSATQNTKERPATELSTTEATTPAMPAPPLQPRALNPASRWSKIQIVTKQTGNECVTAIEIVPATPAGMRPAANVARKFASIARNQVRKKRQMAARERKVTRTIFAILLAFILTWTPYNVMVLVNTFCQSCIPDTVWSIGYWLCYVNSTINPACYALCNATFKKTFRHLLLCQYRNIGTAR
Assay: In vitro radioligand binding assay, M4, [3H]4-DAMP
Conditions: human recombinant (CHO cells)
Protocol: Certain compounds were tested by in vitro binding assays using standard procedures. […] These receptors and assays are well known to those skilled in the art, as exemplified by the following: Abramovitz, M. et al. (2000), Biochem. Biophys. Acta., 1483: 285-293 (EP4, IP (PGI2)); Aharony, D. et al. (1993), Mol. Pharmacol., 44: 356-363 (NK2); Ardati, A. et al. (1997), Mol. Pharmacol., 51: 816-824 (NOP (ORL1)); Bignon, E. et al. (1999), J. Pharmacol. Exp. Ther. 289: 742-751 (CCK1 (CCKA)); Bloomquist, B. T. et al. (1998), Biochem. Biophys. Res. Commun., 243: 474-479 (GAL2); Brockhaus, M. et al. (1990), Proc. Natl. Acad. Sci. U.S.A., 87: 3127-3131 (TNF-α); Brown, G. B. (1986), J. Neurosci., 6: 2064-2070 (Na+ channel (site 2)); Buchan, K. W. et al. (1994), Brit. J. Pharmacol., 112: 1251-1257 (ETA); Cesura, A. M. et al. (1990), Mol. Pharmacol., 37: 358-366 (MAO-A); Choi, D. S. et al. (1994), FEBS Lett., 352: 393-399 (5-HT2B); Clark, A. F. et al. (1996), Invest. Ophtalmol. Vis. […]

Fc1cccc2c1CCO[C@@H]2[C@H]1CCN1 [Compound I-96, (R)-2-((S)-5-fluoroisochroman-1-yl)azetidine]
M4 percent inhibition of specific binding: M4 (53%)
